According to PMC10047683, “A Novel Family of Lysosomotropic Tetracyclic Compounds for Treating Leukemia” (Cancers, 2023):

What was measured:
primary AML samples = assay: Cytotoxicity in primary AML samples (flow cytometry, blast gate); assay type: cell-based, human
Text: (§1) Primary AML samples were obtained at diagnosis from patients diagnosed at Hospital Clínic of Barcelona (Spain) and Hospital Germans Trias i Pujol (Badalona, Spain). AML diagnosis, classification, and risk stratification were based on the latest revised WHO criteria (Supplementary Table S1). Clinical characteristics of AML patients are summarized in Supplementary Table S1. Mononuclear cells (MNCs) were isolated with Ficoll density gradient centrifugation (GE Healthcare, Chicago, IL, USA). All patients provided their written informed consent in accordance with the Declaration of Helsinki, and the study was approved by the corresponding ethics committees. Mature blood MNCs were isolated from healthy donors’ buffy coats provided by Banc de Sang i Teixits (BSiT, Barcelona, Spain). Umbilical-cord blood was provided by BSiT, and MNCs were depleted for lineage marker-positive cells using magnetic separation with the Human Lineage Cell Depletion kit (Miltenyi Biotec, North Rhine-Westphalia, Germany) following the manufacturer’s recommendations.
(§2) First, 2 × 10^5 (72 h assays in cell lines (Supplementary File S1)), 3 × 10^5 (48 h assays in cell lines) or 7.5 × 10^5 (primary AML, healthy donor buffy coats) cells per mL were cultured in 96-well plates, and all drugs were added at the indicated concentrations. In α-tocopherol experiments, cells were treated with growing concentrations of α-tocopherol and EDK drugs for 48 h. In the NAC and 3MA experiments, treatment was simultaneous with EDK compounds. In glucose deprivation experiments, cells were cultivated with a standard medium (glucose high, 2 g/L), a standard medium without glucose, or a standard medium with galactose (2 g/L) and without glucose. Cell viability was measured via 7-AAD (eBioscience) exclusion and Hoechst33342 (Sigma-Aldrich, St. Louis, MO, USA) positivity staining via flow cytometry, and the cell count was obtained through volume. In the experiments with the primary cells, analyses were performed inside the blast population as detected via blast gates (CD45^low SSC^int). For solid tumor cell lines, viability was analyzed using CellTiter-Glo® Luminescent Cell Viability Assay (Promega).

[1] = test system: peripheral blood mononuclear cells from healthy donors' buffy coats; assay: Cytotoxicity in healthy donor blood cells; assay type: cell-based, human; settings: 72 h
Text: as §1, §2

TFEB = TFEB promoter-luciferase reporter; assay type: cell-based; settings: HEK293T; 10 and 20 µM, 24 h
Experimental: We transfected 2.5 × 10^5 HEK-293T cells per condition using the jetPEI DNA transfection reagent (Polyplus) with TFEB promoter-luciferase reporter Addgene#66801. Then, at 24 h post-transfection, cells were treated at the indicated conditions, and the 48 h post-transfection luminescence of lysed cells was analyzed according to the manufacturer’s specifications.

`CN1CCC(=C2c3ccccc3-c3c2sc2ccccc32)CC1` [EDK-87] was tested, and the “reduced the numbers of primary leukemic cells” value (primary AML samples; 14 primary AML samples, 72 h, EDK-87 10 and 25 µM, EDK-88 5 and 10 µM assayed) was 43% ± 8.5, the # Live cells refer to control (primary AML samples; AML sample #61, 5 µM, 72 h) was 112% and the # Live cells refer to control (primary AML samples; AML sample #61, 10 µM, 72 h) was 107%. The # Live cells refer to control (primary AML samples; AML sample #61, 25 µM, 72 h) was 47%, the # Live cells refer to control (primary AML samples; AML sample #63, 5 µM, 72 h) was 71% and the # Live cells refer to control (primary AML samples; AML sample #63, 10 µM, 72 h) was 37%. It also gave a # Live cells refer to control (primary AML samples; AML sample #63, 25 µM, 72 h) of 13%, a # Live cells refer to control (primary AML samples; AML sample #98, 5 µM, 72 h) of 59% and a # Live cells refer to control (primary AML samples; AML sample #98, 10 µM, 72 h) of 26%. It also gave a # Live cells refer to control (primary AML samples; AML sample #98, 25 µM, 72 h) of 5%, a # Live cells refer to control (primary AML samples; AML sample #130, 5 µM, 72 h) of 97% and a # Live cells refer to control (primary AML samples; AML sample #130, 10 µM, 72 h) of 97%. For the same compound, the # Live cells refer to control (primary AML samples; AML sample #130, 25 µM, 72 h) was 35%, the # Live cells refer to control (primary AML samples; AML sample #132, 5 µM, 72 h) was 74% and the # Live cells refer to control (primary AML samples; AML sample #132, 10 µM, 72 h) was 60%. The # Live cells refer to control (primary AML samples; AML sample #133, 5 µM, 72 h) was 60%, the # Live cells refer to control (primary AML samples; AML sample #133, 10 µM, 72 h) was 19% and the # Live cells refer to control (primary AML samples; AML sample #134, 5 µM, 72 h) was 97%. The # Live cells refer to control (primary AML samples; AML sample #134, 10 µM, 72 h) was 89%, the # Live cells refer to control (primary AML samples; AML sample #135, 5 µM, 72 h) was 94% and the # Live cells refer to control (primary AML samples; AML sample #135, 10 µM, 72 h) was 80%. It also gave a # Live cells refer to control (primary AML samples; AML sample #135, 25 µM, 72 h) of 14%, a # Live cells refer to control (primary AML samples; AML sample #136, 5 µM, 72 h) of 97% and a # Live cells refer to control (primary AML samples; AML sample #136, 10 µM, 72 h) of 51%. For the same compound, the # Live cells refer to control (primary AML samples; AML sample #136, 25 µM, 72 h) was 2%, the # Live cells refer to control (primary AML samples; AML sample #141, 5 µM, 72 h) was 77% and the # Live cells refer to control (primary AML samples; AML sample #141, 10 µM, 72 h) was 52%. It also gave a # Live cells refer to control (primary AML samples; AML sample #147, 5 µM, 72 h) of 17%, a # Live cells refer to control (primary AML samples; AML sample #148, 5 µM, 72 h) of 47% and a # Live cells refer to control (primary AML samples; AML sample #148, 10 µM, 72 h) of 5%. The # Live cells refer to control (primary AML samples; AML sample #152, 5 µM, 72 h) was 83%, the # Live cells refer to control (primary AML samples; AML sample #152, 10 µM, 72 h) was 56% and the # Live cells refer to control (primary AML samples; AML sample #153, 5 µM, 72 h) was 78%. The # Live cells refer to control (primary AML samples; AML sample #153, 10 µM, 72 h) was 65%, the “therapeutic window (viability)” value (primary AML samples; primary AML vs healthy-donor blood cells) was 2.4 and the “healthy-donor blood cells affected” value ([1]; 9 healthy donors, EDK-87 10 and 25 µM, EDK-88 5 and 10 µM assayed) was 33.2% ± 8.1. The # Live cells refer to control ([1]; BC sample #20, 5 µM) was 140%, the # Live cells refer to control ([1]; BC sample #20, 10 µM) was 113% and the # Live cells refer to control ([1]; BC sample #26, 5 µM) was 78%. For the same compound, the # Live cells refer to control ([1]; BC sample #26, 10 µM) was 65%, the # Live cells refer to control ([1]; BC sample #31, 5 µM) was 83% and the # Live cells refer to control ([1]; BC sample #31, 10 µM) was 56%. The # Live cells refer to control ([1]; BC sample #32, 5 µM) was 81%, the # Live cells refer to control ([1]; BC sample #32, 10 µM) was 41% and the # Live cells refer to control ([1]; BC sample #32, 25 µM) was 72%. The # Live cells refer to control ([1]; BC sample #41, 5 µM) was 77%, the # Live cells refer to control ([1]; BC sample #41, 10 µM) was 87% and the # Live cells refer to control ([1]; BC sample #44, 5 µM) was 74%. It also gave a # Live cells refer to control ([1]; BC sample #44, 10 µM) of 76%, a # Live cells refer to control ([1]; BC sample #44, 25 µM) of 80% and a # Live cells refer to control ([1]; BC sample #51, 5 µM) of 101%. The # Live cells refer to control ([1]; BC sample #51, 10 µM) was 77%, the # Live cells refer to control ([1]; BC sample #59, 5 µM) was 89% and the # Live cells refer to control ([1]; BC sample #59, 10 µM) was 41%. For the same compound, the # Live cells refer to control ([1]; BC sample #59, 25 µM) was 13%, the # Live cells refer to control ([1]; BC sample #63, 5 µM) was 92% and the # Live cells refer to control ([1]; BC sample #63, 10 µM) was 45%. The # Live cells refer to control ([1]; BC sample #63, 25 µM) was 22% and the “TFEB activity (reporter)” value (TFEB) was “activation of TFEB activity”.
